Test results taken from patent US20230103554A1, “TNFa SIGNALING [sequence] TUMOR-PROMOTING INFLAMMATION THAT CAN BE TARGETED TO THERAPY” (Baylor College of Medicine, priority 2020, published 2023).
Entries after “also recorded” stand apart in the source; their conditions may differ.

Legend:
sTNFα production = assay: NB-monocyte co-culture, TNFα ELISA of supernatant; assay type: cell-based, human
Experimental: (§1) Monocytes were directly cultured with wild-type or TNF, TNFR1, TNFR2 KO NB cell lines in ULA plates for 24 hours. Activation of NF-kB in monocytes and NB was measured by flow cytometry and cytokine production measured by ELISA from co-culture supernatant. To evaluate the contact-dependence of monocyte activation by NB, monocytes were cultured in ULA plates with seven-day NB conditioned medium mixed 1:1 with complete monocyte medium for 24 hours and analyzed for IL-6 production. To assess the growth advantage of NB cultured with monocytes, NB-luc cell lines and monocytes were seeded in tissue culture-treated white 96-well plates (1:1 ratio) and cultured for four days. Luminescence was measured using a TECAN Spark plate reader (TECAN). To evaluate changes in proliferation, NB was pulsed for 10 minutes in CellTrace Violet (2 μM, Invitrogen) and seeded at 100,000 cells per well in a 12-well tissue culture-treated plate. Monocytes were added directly to the NB monolayer at a density of 100,000 per well and incubated for four days. CellTrace Violet expression was analyzed by flow cytometry.
(§2) Cytokines released by monocytes were detected within co-culture supernatants using the Human TNF-alpha Quantikine ELISA Kit (TNFα, R&D Systems) and the Human IL-6 Quantikine ELISA Kit (IL-6, R&D Systems) according to manufacturer's guidelines. ELISA plates were read using a TECAN Spark plate reader (TECAN). Global cytokine regulation was evaluated using a custom Luminex panel containing the following cytokines: CX3CL1, CXCL10, EGF, FGF-2, Flt3L, G-CSF, GM-CSF, IL-1α, IL-1β, IL-1Ra, IL-4, IL-6, IL-8, IL-10, IL-12 (p40), IL-12 (p′70), M-CSF, MCP-1, MCP-3, MDC, MIP-1α, MIP-1β, TGFα, TNFα, TNFβ, and VEGF-A (Human Cytokine Panel A, Millipore-Sigma).

[1] = tested on: NF-κB signaling in NB cells; assay: Intracellular IκBα in NB population of co-culture (PhosFlow flow cytometry); assay type: cell-based, human; conditions: TAPI 40 μM, 24 hours, vs vehicle control (FIG. 23C)
Experimental: as §1
(§3) To evaluate the expression of TNFα in NB and monocytes, cells were first stimulated with LPS (50 ng/mL) in the presence of GolgiStop (BD Biosciences) and fixed using CytoFix/Cytoperm buffer (BD Biosciences). Cells were then stained with TNFα-PE (BD Biosciences). To evaluate the expression of TNFR1 and TNFR2 on NB and monocytes, cells were stained with TNFR1-BV421 and TNFR2-APC (BD Biosciences) in FACS staining buffer containing 0.05% sodium azide to prevent receptor/antibody processing. To estimate changes in NF-kB expression, treated co-cultures were first stained with ZombieViolet (1 μL/test, Biolegend) to counterstain dead cells and APC-H7 CD45 and/or FITC-CD14 to label monocytes for 20 minutes at room temperature. […] All flow samples were run using an LSRII 5-laser flow cytometer (Texas Children's Hospital Cancer Center Flow Cytometry Core, Houston, Tex.) and analyzed using FlowJo Software (Treestar).

monocyte IL-6 production = assay: NB-monocyte co-culture, IL-6 ELISA of supernatant; assay type: cell-based, human
Experimental: as §1, §2

[2] = tested on: NF-κB signaling in monocytes; assay: Intracellular IκBα in monocyte population of co-culture (PhosFlow flow cytometry); assay type: cell-based, human; conditions: TAPI 40 μM, 24 hours, vs vehicle control
Experimental: as §1, §3

mTNFα = conditions: TAPI 40 μM, 24 hours, CD45+GD2− monocyte population
Experimental: (FIG. 13C) NB and monocyte co-cultures were treated with TNF converting enzyme inhibitor TAPI (40 μM) or vehicle control (Veh., 0.2% DMSO) for 24 hours. Surface expression of mTNFα within CD45+GD2− monocyte population was performed using flow cytometry. MFI as indicated. Data are from a representative of two experiments run in duplicate.

| SMILES | reduction in sTNFα levels in co-culture supernatant (sTNFα production; TAPI 40 μM, 24 hours) | IκBα expression level in NB cells [1] | IL-6 levels in co-culture supernatant (monocyte IL-6 production; TAPI 40 μM, 24 hours, vs vehicle control) | intracellular IκBα expression in monocytes [2] | increase in surface staining for mTNFα (mTNFα) | soluble (s)TNFα production from monocytes (sTNFα production; CHLA-255/monocyte co-culture, IKKi 0-1000 nM (FIG. 12D, FIG. 19)) | IL-6 production from monocytes (monocyte IL-6 production; CHLA-255/monocyte co-culture, IKKi 0-1000 nM (FIG. 12C, FIG. 19)) | IL-6 production in NB-monocyte co-cultures (monocyte IL-6 production; IKK inhibitor VII 125 nM, 24 hours, vs 0.1% DMSO (FIG. 1C)) |
| --- | --- | --- | --- | --- | --- | --- | --- | --- |
| CC(C)C[C@H](CC(=O)NO)C(=O)N[C@@H](Cc1ccc2ccccc2c1)C(=O)N[C@@H](C)C(=O)NCCN [TAPI, TAPI-1] | 90% | significant increase in IκBα expression level | increased the activation of monocytes as measured by IL-6 levels; also recorded: significantly increased IL-6 levels | no effect | 40% |  |  |  |
| O=C(c1ccc(Nc2nccc(-c3cc4ccccc4s3)n2)cc1)N1CCC(N2CCCC2)CC1 [IKK inhibitor VII] |  |  |  |  |  | dose-dependent abrogation | dose-dependent abrogation | reversed IL-6 production |
